This data set can be described thus: Human HepG2 cell viability assay in 384 well format. Type of data set: toxicity, cell-based. Also noted: dose 125 nL, time 70.5 hour; concentration not given beside the values. To be noted: HepG2 cells, read-out: Inhibition.
For `CCCN1CCc2nc(SCc3ccccc3F)[nH]c(=O)c2C1`, the cytotoxicity at 70.5 h is 6.37%.
Take `CCCS(=O)(=O)c1ccc(N2CCC(Cc3ccccc3)CC2)nn1`: the cytotoxicity at 70.5 h is -2.73%.
Regarding `CC(C)(C)OC(=O)Cn1cccc(S(=O)(=O)N2CCCC2)c1=O`, the cytotoxicity at 70.5 h was -12.8%.
Next, `O=c1c(S(=O)(=O)N2CCCC2)cccn1Cc1c(F)cccc1Cl`: -6.76%; `O=c1c(S(=O)(=O)N2CCCCC2)cccn1Cc1ccccc1Cl`: -1.51%; `CC1CCN(S(=O)(=O)c2cccn(CC(=O)NC(C)(C)C)c2=O)CC1`: -9.49%.
`Cc1ccc(-c2csc3c(=O)[nH]c(N4CCCC(C(N)=O)C4)nc23)cc1` (stereo unspecified): the cytotoxicity at 70.5 h is 1.04%.
Consider `O=C(O)C1CCCN(c2nc3c(-c4ccccc4)csc3c(=O)[nH]2)C1` (stereo unspecified), for which the cytotoxicity at 70.5 h worked out at 0.25%.
For the compound `COCCCNC(=O)Cc1cc(-c2ccc(Cl)cc2)on1`, the cytotoxicity at 70.5 h came to 3.59%.
Take `O=C(Cc1cc(-c2ccc3c(c2)OCCO3)on1)NCc1ccccn1`: the cytotoxicity at 70.5 h was -10.7%.
Regarding `O=C(c1cc(F)cc(F)c1)N1CCC2(CC1)CC2`, the cytotoxicity at 70.5 h was -9.31%.
Next, `O=C(C1CCCC1)N1CCO[C@@H]2CNC[C@@H]21`: 12.2%; `CN1C2(CCN(Cc3ccc(F)cc3)C2)c2ccccc2S1(=O)=O` (stereo unspecified): 13.5%.
With `CCN1C(=O)CC(c2cnn(C)c2)C12CCN(C(=O)C1CC=CC1)CC2` (stereo unspecified), the cytotoxicity at 70.5 h is 0.244%.
With `c1ccc(NCc2cn3c(n2)CN(Cc2ccoc2)CC3)nc1`, the cytotoxicity at 70.5 h was -0.75%.
Next, `CN1C(=O)CC(c2cnn(C)c2)C12CCN(C(=O)c1ccc[nH]1)CC2` (stereo unspecified): -5.07%; `O=c1cc(Cn2ccnc2)nc2n1CCCN(Cc1ccco1)C2`: -5.53%.
On to `O=c1cc(Cn2cncn2)nc2n1CCCN(Cc1ccco1)C2`, for which the cytotoxicity at 70.5 h is -3.55%.
As to `c1cnc(OCc2nnc3n2CCN(Cc2ccco2)C3)nc1`, the cytotoxicity at 70.5 h is -0.839%.
Next, `CCOC(=O)C1CN(S(=O)(=O)CC)Cc2ncn(CC)c21` (stereo unspecified): 0.473%.
Next, `Cn1cc(C2CC(=O)NC23CCN(C(=O)c2ccc[nH]2)CC3)cn1` (stereo unspecified): -1.53%; `CC(=O)N1CCCc2sc(C(=O)Nc3ccc(C)nc3)nc21`: -1.24%.
For the compound `O=C(C1CCCCC1)N1CCO[C@@H]2CNC[C@@H]21`, the cytotoxicity at 70.5 h was -2.15%.
As to `Cc1noc([C@]23COC[C@H]2CN(S(=O)(=O)N(C)C)C3)n1`, the cytotoxicity at 70.5 h was -1.88%.
`Cc1noc([C@]23COC[C@H]2CN(S(=O)(=O)C2CC2)C3)n1`: the cytotoxicity at 70.5 h was -1.24%.
For `COCC1c2c(cnn2C)CCN1C(=O)c1ccc2c(c1)OCO2` (stereo unspecified), the cytotoxicity at 70.5 h came out at 1.82%.
As for `c1cncc(-c2ccc3c(c2)CCC32CCNCC2)c1`, the cytotoxicity at 70.5 h was determined as 17.8%.
For the compound `CN(C)C(=O)N1CCC2(CC(=O)N(c3ccc4c(c3)OCO4)C2)C1` (stereo unspecified), the cytotoxicity at 70.5 h was determined as 1.41%.
As to `O=c1ccc2c(n1Cc1ccncc1)CCN(C1CCOC1)CC2` (stereo unspecified), the cytotoxicity at 70.5 h came to 0.608%.
As for `CC(C)NC(=O)N1CCC(c2nnc3ccc(C(=O)N(C)C)cn23)C1` (stereo unspecified), the cytotoxicity at 70.5 h is -1.02%.
In the case of `CN1CCCN(C(=O)c2nc3c(s2)CCCN3CC2CC2)CC1`, the cytotoxicity at 70.5 h was -1.89%.
Regarding `O=C(c1cc(-c2ccn(CC3CC3)n2)n2ccccc12)N1CCCO1`, the cytotoxicity at 70.5 h is -3.08%.
Take `O=C(NC1CCCC1)c1nc2c(o1)CN(C(=O)CO)C2`: the cytotoxicity at 70.5 h was -1.18%.
As for `c1cc(-c2nnn3c2COC(CNCC2CCOCC2)C3)ccn1` (stereo unspecified), the cytotoxicity at 70.5 h was 32.3%.
For `O=C(C1CN(CC2CC2)CC12CCOCC2)N1CCCC1` (stereo unspecified), the cytotoxicity at 70.5 h turned out to be 16.3%.
As to `O=C(c1ccsc1)N1CCc2onc(CN3CCOCC3)c2C1`, the cytotoxicity at 70.5 h was -4.87%.
Regarding `O=C1[C@@H]2CCN(CC3CC3)C[C@@H]2OCCN1c1ccsc1`, the cytotoxicity at 70.5 h was -2.56%.
As to `COCCN1CCC2(CC1)CC(CC(N)=O)c1ccc(F)cc12` (stereo unspecified), the cytotoxicity at 70.5 h amounted to 1.63%.
In the case of `c1cc(CNCC2Cn3nncc3CO2)ccn1` (stereo unspecified), the cytotoxicity at 70.5 h is -5.93%.
Turning to `CNC(=O)c1cnc2n1CCN(C(=O)Cc1ccccn1)C2`, the cytotoxicity at 70.5 h was -13.8%.
`CC(C)N1c2sc(-c3ccccc3)nc2CC1C(=O)NCCCO` (stereo unspecified): the cytotoxicity at 70.5 h is -5.59%.
Regarding `CCS(=O)(=O)N1CC[C@@H]2[C@H](COCC3CC3)CN(C)C(=O)[C@@H]2CC1`, the cytotoxicity at 70.5 h was -5.95%.
Consider `c1cc(CNCC2Cn3nncc3CO2)cs1` (stereo unspecified), for which the cytotoxicity at 70.5 h was -6.68%.
Next, `CC(C)N1c2sc(-c3ccccc3)nc2CC1C(=O)NC1CCCC1` (stereo unspecified): -6.93%; `CC(C)N1c2sc(-c3ccsc3)nc2CC1C(=O)NC1CC1` (stereo unspecified): -5.25%; `COCc1nc2c(o1)CN(C(=O)NCc1ccccc1)C2`: -12.9%.
As to `CCOc1cc(=O)n2c(c1C(=O)OCc1ccc(OC)cc1)CCCC2`, the cytotoxicity at 70.5 h is -14.9%.
With `Cc1noc(C2CCCCN2C(=O)NCc2ccco2)n1` (stereo unspecified), the cytotoxicity at 70.5 h is -19.9%.
As to `CNC(=O)C1CCN(c2nc3nc[nH]c(=O)c3s2)CC1`, the cytotoxicity at 70.5 h was -16.7%.
For the compound `COc1cc(C(=O)NC(C)C)nc2c(C)cc(F)cc12`, the cytotoxicity at 70.5 h was found to be 23.4%.
`COc1cc(C(=O)NCC2CC2)nc2c(C)cc(F)cc12`: the cytotoxicity at 70.5 h was -4.75%.
`COc1cc(C(=O)NCC2CCCO2)nc2c(C)cc(F)cc12` (stereo unspecified): the cytotoxicity at 70.5 h is -25.4%.
As for `CCc1c(C(=O)O)nnn1-c1cc(C)cc(C)c1`, the cytotoxicity at 70.5 h was -18.5%.
Take `CN(C)CCCNC(=O)c1cc(Cl)ccc1Cl`: the cytotoxicity at 70.5 h was -14.5%.
With `CN(C)CCCNC(=O)c1ccccc1NC(=O)c1ccccc1Cl`, the cytotoxicity at 70.5 h was 22.1%.
Consider `O=C(CCn1ccc2ccc(F)cc21)/N=c1\[nH]nc(C2CCCO2)s1` (stereo unspecified), for which the cytotoxicity at 70.5 h is -20.2%.
On to `CC(CO)NC(=O)c1ccc2[nH]/c(=N\S(C)(=O)=O)sc2c1` (stereo unspecified), for which the cytotoxicity at 70.5 h was -3.5%.
Regarding `CSCCC(CO)NC(=O)c1ccc2[nH]/c(=N\S(C)(=O)=O)sc2c1` (stereo unspecified), the cytotoxicity at 70.5 h was -13.7%.
Next, `Cc1ccccc1COCCOCn1c(C)cc(=O)[nH]c1=O`: -4.1%; `Cc1noc2nc3c(c(C(=O)/N=c4\[nH]nc(C(C)C)s4)c12)CCC3`: -12.5%.
Next, `COc1ccc(NC(=O)CSc2ccc3nncn3n2)c(OC)c1`: -15.9%; `Cc1nn(C)c2nc3c(c(C(=O)/N=c4\[nH]nc(C(C)C)s4)c12)CCC3`: -18.8%; `COc1ccc(NC(=O)CCSc2ccc3nncn3n2)c(OC)c1`: -11.8%.
As for `COc1cc2[nH]c(C(=O)O)cc2c(OC)c1C`, the cytotoxicity at 70.5 h was -5.57%.
Take `CCOc1cc(-c2cc(=O)n3c(n2)CCCCC3)ccc1O`: the cytotoxicity at 70.5 h is -20.5%.
Next, `COc1ccc(CCC2CCCCN2)cc1` (stereo unspecified): 24.2%.
Take `CSCC[C@H](N)c1nnc(SCc2cc(C)ccc2C)o1`: the cytotoxicity at 70.5 h is -5.14%.
Next, `CCCN1CCC2(C1)c1ccccc1S(=O)(=O)N2Cc1ccccc1` (stereo unspecified): 3.08%; `CS(=O)(=O)NCc1cn2c(n1)CN(Cc1ccoc1)CC2`: 3.17%.
On to `Fc1cnc(N2CC3(CCN(CC4CC4)C3)C2)nc1`, for which the cytotoxicity at 70.5 h is -0.963%.
With `O=C(Cc1ccsc1)N1C[C@@H]2OCCN(CC3CC3)[C@@H]2C1`, the cytotoxicity at 70.5 h is 1.39%.
As for `CN(C)C(=O)COCc1nnc2n1CCN(Cc1ccsc1)C2`, the cytotoxicity at 70.5 h was 0.94%.
Regarding `Cc1nc(-c2cc(C(=O)N3CCCN(C)CC3)c3ccccn23)cn1C`, the cytotoxicity at 70.5 h was -2.18%.
Regarding `O=C(C1CN(CC2CCOCC2)CC12CCOCC2)N1CCOCC1` (stereo unspecified), the cytotoxicity at 70.5 h was -2.61%.
For the compound `O=S(=O)(C1CC1)N1CCC2(CC1)CN(Cc1nccs1)CCO2`, the cytotoxicity at 70.5 h is -5.12%.
As for `Fc1cnc(N2CCCC3(CN(Cc4ccccc4)CCO3)C2)nc1` (stereo unspecified), the cytotoxicity at 70.5 h is -4.05%.
Regarding `Cc1cccc(CO[C@@H]2CO[C@@]3(CCN(S(=O)(=O)N(C)C)C3)C2)n1`, the cytotoxicity at 70.5 h is -4.3%.
Next, `COCCN1CCO[C@@H]2CN(C(=O)Cc3cccc(F)c3)CC[C@@H]2C1`: -0.585%; `Cc1cccc(COC2COC3(CCN(S(C)(=O)=O)CC3)C2)n1` (stereo unspecified): -0.691%.
Next, `CC1CCN(C(=O)[C@@H]2C[C@@H]3CCN(CC4CCOCC4)C[C@@H]3O2)CC1`: -7.26%; `CC1CCN(C(=O)[C@H]2C[C@@H]3CCN(CC4CCOCC4)C[C@H]3O2)CC1`: -6.03%; `CC(C)N(C)Cc1cnc2n1CCN(C(=O)Cc1cccs1)C2C` (stereo unspecified): -6.21%.
With `CCOCc1cnc2n1CCN(C(=O)Cc1ccccn1)C2C` (stereo unspecified), the cytotoxicity at 70.5 h was -5.89%.
Consider `Cc1ccc(CN2CC[C@H]3[C@H]2CCN3S(=O)(=O)C2CC2)s1`, for which the cytotoxicity at 70.5 h was -5.12%.
For the compound `Cc1ccc(CN2CC[C@H]3[C@H]2CCN3S(C)(=O)=O)s1`, the cytotoxicity at 70.5 h was -6.63%.
With `C[C@@H]1CN(C(=O)C2CCOCC2)C[C@]12CCN(c1cccnc1)C2=O`, the cytotoxicity at 70.5 h was -6.64%.
As for `CC(C)N1CCC2(CC1)CC(CC(N)=O)c1ccc(F)cc12` (stereo unspecified), the cytotoxicity at 70.5 h is -5.38%.
As for `Cc1ccc(NCc2cn3c(n2)CN(Cc2ccoc2)CC3)nn1`, the cytotoxicity at 70.5 h came to 12%.
Next, `CC(C)N(C)C[C@H]1OC[C@@H]2CCN(Cc3cccc(C#N)c3)C[C@@H]21`: 14.2%; `O=c1ccc2c(n1Cc1cccnc1)CCN(C1CCOC1)CC2` (stereo unspecified): -2.89%.
Consider `CC(C)Nc1ncnc2c1CCN(Cc1nccn1C)CC2`, for which the cytotoxicity at 70.5 h was 8.85%.
Consider `COCCN1CCO[C@@H]2CN(C(=O)NCc3cccnc3)CC[C@@H]2C1`, for which the cytotoxicity at 70.5 h came to 0.801%.
With `CN(C)C[C@H]1OC[C@@H]2CN(C(=O)NCc3cccnc3)CC[C@@H]21`, the cytotoxicity at 70.5 h came to 0.184%.
With `CN1CCCN(C(=O)c2cc(-c3cc[nH]n3)n3ccccc23)CC1`, the cytotoxicity at 70.5 h was -1.54%.
As for `CN1CCN(C(=O)[C@@H]2CC[C@@H]3[C@@H](CCN3c3ncccn3)O2)CC1`, the cytotoxicity at 70.5 h was -7.39%.
As to `CC(C)N1[C@H](Cn2cccn2)C[C@@H]2CN(C3CCOCC3)CC[C@@H]21`, the cytotoxicity at 70.5 h was -1.14%.

Source of the values: ChEMBL document CHEMBL3507680, “University of Dundee, Gates Library screen for HepG2 cell viability”.
